Results: PMC8196973, “Synthesis, Molecular Docking Analysis and Biological Evaluations of Saccharide-Modified Thiadiazole Sulfonamide Derivatives” (International Journal of Molecular Sciences, 2021)
≈ marks a conversion by molar mass, not a printed value.

How the values were obtained:
hCA IX = hCA IX (Homo sapiens, UniProt Q16790); experiment: hCA IX enzyme inhibition assay (4-NPA hydrolysis)
Procedure: (§2) Carbonic anhydrase can catalyze the hydrolysis of 4-nitrophenyl acetate (4-NPA). […] The experimental buffer consisted of 15 mmol/L 4-(2-hydroxyethyl)-1-piperazineethanesulfonic acid (HEPES) (pH = 7.40), 0.01% tetraethylene glycol monododecyl ether (Brij), and 100 mmol/L NaCl. […] Then, 18 μL of enzyme solution was transferred into 384-well plates in duplicate. Stock solutions of the inhibitors (10.0 mmol/L) were prepared using DMSO as solvent, and then diluted 1:3 with DMSO. […] Then 2.00 μL of each inhibitor was added to each well. All compounds were allowed to incubate with the enzyme for 15 min at 25 °C to form the Enzyme-Inhibitor (E-I) complex. After that, substrate 4-NPA (1.00 mmol/L, 20.00 μL, Sigma-Aldrich, St. Louis, MI, USA) was added into the E-I complex solution and incubated for 60, 90, 90 min at 25 °C, respectively.

hCA II = hCA II (Homo sapiens, UniProt P00918); experiment: hCA II enzyme inhibition assay (4-NPA hydrolysis)
Procedure: as §2

hCA XII = hCA XII (Homo sapiens, UniProt O43570); experiment: hCA XII enzyme inhibition assay (4-NPA hydrolysis)
Procedure: as §2

[1] = test system: human colon cancer HT-29 cells; experiment: CCK-8 cell viability assay, HT-29; assay type: cell-based; settings: Homo sapiens, HT-29; Table S2
Procedure: (§1) The MDA-MB-231, HT-29 and MG-63 cell lines were provided by KeyGEN BioTECH Ltd (Nanjing, Jiangsu, China). The cells were digested and counted to prepare a cell suspension of 5.0 × 10^4 cells/mL, and then 100 μL of cell suspension was added to each well of the 96-well cell culture plate. The plates were placed in a 37 °C, 5% CO2 incubator (Corning Incorporated, Corning, New York, USA) for 24 h. The drug was diluted with the culture medium to the required concentration, ed100 μL of the corresponding drug-containing medium was added to each well, and a negative control group was set up at the same time. The 96-well cell culture plates were placed into a normoxic incubator (37 °C, 5% CO2) and hypoxic incubator (37 °C, 5% CO2, 0.5% O2, 94.5% N2) for 48 h. Finally, the 96-well plate was stained with CCK-8 and the OD value determined (λ = 450 nm).

[2] = test system: breast adenocarcinoma MDA-MB-231 cells; experiment: CCK-8 cell viability assay, MDA-MB-231; assay type: cell-based, human; settings: Homo sapiens, MDA-MB-231; Table S2
Procedure: as §1

Chain of hCA XII (O43570 25-354): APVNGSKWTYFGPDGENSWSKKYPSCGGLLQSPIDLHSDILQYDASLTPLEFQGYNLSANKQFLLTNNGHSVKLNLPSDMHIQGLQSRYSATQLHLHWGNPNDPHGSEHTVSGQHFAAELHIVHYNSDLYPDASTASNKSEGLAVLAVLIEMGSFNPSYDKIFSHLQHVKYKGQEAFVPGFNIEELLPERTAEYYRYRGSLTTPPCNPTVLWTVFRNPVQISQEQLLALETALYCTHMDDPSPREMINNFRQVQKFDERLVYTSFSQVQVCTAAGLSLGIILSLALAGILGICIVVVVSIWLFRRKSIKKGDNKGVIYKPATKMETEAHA

Row | Compound | IC50 (hCA IX) [nM] | IC50 (hCA II) [nM] | selectivity: inhibitory activity for hCA IX higher than that for hCA II (hCA IX; hCA IX over hCA II) [times] | IC50 (hCA XII) [nM] | IC50 [1] [µg/mL] | IC50 [2] [µg/mL]
1 | Nc1ccc(C(=O)Nc2nnc(S(N)(=O)=O)s2)cc1 [Compound 12a, 4-Amino-N-(5-sulfamoyl-1,3,4-thiadiazol-2-yl)benzamide] | 44.6 ± 8.3 | – | – | – | – | –
2 | Nc1cccc(C(=O)Nc2nnc(S(N)(=O)=O)s2)c1 [Compound 12b, 3-Amino-N-(5-sulfamoyl-1,3,4-thiadiazol-2-yl)benzamide] | 63.8 ± 6.3 | 79.1 ± 5.4 | – | – | – | –
3 | Nc1ccc(C(=O)Nc2nnc(S(N)(=O)=O)s2)cc1F [Compound 12c, 4-Amino-3-fluoro-N-(5-sulfamoyl-1,3,4-thiadiazol-2-yl)benzamide] | 41.3 ± 6.2 | 242 ± 9.4 | – | – | – | –
4 | Nc1ccc(C(=O)Nc2nnc(S(N)(=O)=O)s2)cc1Cl [Compound 12d, 4-Amino-3-chloro-N-(5-sulfamoyl-1,3,4-thiadiazol-2-yl)benzamide] | 36.5 ± 7.6 | 401 ± 12.3 | – | – | – | –
5 | Nc1ccc(C(=O)Nc2nnc(S(N)(=O)=O)s2)cc1Br [Compound 12e, 4-Amino-3-bromo-N-(5-sulfamoyl-1,3,4-thiadiazol-2-yl)benzamide] | 65.9 ± 8.3 | 543 ± 10.3 | – | – | – | –
6 | Nc1ccc(C(=O)Nc2nnc(S(N)(=O)=O)s2)cc1[N+](=O)[O-] [Compound 12f, 4-Amino-3-nitro-N-(5-sulfamoyl-1,3,4-thiadiazol-2-yl)benzamide] | 55.1 ± 11.5 | 701 ± 13.2 | 10 | – | – | –
7 | Cc1cc(C(=O)Nc2nnc(S(N)(=O)=O)s2)ccc1N [Compound 12g, 4-Amino-3-methyl-N-(5-sulfamoyl-1,3,4-thiadiazol-2-yl)benzamide] | 43.8 ± 6.6 | 120 ± 14.8 | – | – | – | –
8 | COc1cc(C(=O)Nc2nnc(S(N)(=O)=O)s2)ccc1N [Compound 12h, 4-Amino-3-methoxy-N-(5-sulfamoyl-1,3,4-thiadiazol-2-yl)benzamide] | 36.4 ± 8.3 | 147 ± 15.3 | – | – | – | –
9 | CC(=O)O[C@H]1C(=O)[C@@]2(C)[C@H]([C@H](OC(=O)c3ccccc3)[C@]3(O)C[C@H](OC(=O)[C@H](O)[C@@H](NC(=O)c4ccccc4)c4ccccc4)C(C)=C1C3(C)C)[C@]1(OC(C)=O)CO[C@@H]1C[C@@H]2O [Taxol, reference compound] | – | – | – | – | 0.111 (≈ 0.13 µM) | 0.099 (≈ 0.116 µM)

Second part, the compound after the results:

Row | IC50 (hCA IX) [nM] | IC50 (hCA II) [nM] | selectivity: inhibitory activity for hCA IX higher than that for hCA II (hCA IX; hCA IX over hCA II) [times] | IC50 (hCA XII) [nM] | IC50 [1] [µg/mL] | IC50 [2] [µg/mL] | Compound
10 | 76.6 ± 6.2 | 215 ± 9.5 | – | 81.8 ± 11.1 | – | – | NS(=O)(=O)c1nnc(NC(=O)c2ccc(NC(=O)CCCC(=O)N[C@@H]3O[C@H](CO)[C@@H](O)[C@H](O)[C@H]3O)c(F)c2)s1 [Compound 14c, N^1-(2-Fluoro-4-((5-sulfamoyl-1,3,4-thiadiazol-2-yl)carbamoyl)phenyl)-N^5-((2R,3R,4S,5S,6R)-3,4,5-trihydroxy-6-(hydroxymethyl)tetrahydro-2H-pyran-2-yl)glutaramide]
11 | 280 ± 10.2 | 765 ± 15.1 | – | – | – | – | NS(=O)(=O)c1nnc(NC(=O)c2ccc(NC(=O)CCCC(=O)N[C@@H]3O[C@H](CO)[C@@H](O)[C@H](O)[C@H]3O)c(Cl)c2)s1 [Compound 14d, N^1-(2-Chloro-4-((5-sulfamoyl-1,3,4-thiadiazol-2-yl)carbamoyl)phenyl)-N^5-((2R,3R,4S,5S,6R)-3,4,5-trihydroxy-6-(hydroxymethyl)tetrahydro-2H-pyran-2-yl)glutaramide]
12 | 1082 ± 8.5 | 886 ± 13.7 | – | – | – | – | NS(=O)(=O)c1nnc(NC(=O)c2ccc(NC(=O)CCCC(=O)N[C@@H]3O[C@H](CO)[C@@H](O)[C@H](O)[C@H]3O)c(Br)c2)s1 [Compound 14e, N^1-(2-Bromo-4-((5-sulfamoyl-1,3,4-thiadiazol-2-yl)carbamoyl)phenyl)-N^5-((2R,3R,4S,5S,6R)-3,4,5-trihydroxy-6-(hydroxymethyl)tetrahydro-2H-pyran-2-yl)glutaramide]
13 | 117 ± 6.9 | 995 ± 10.6 | – | – | – | – | NS(=O)(=O)c1nnc(NC(=O)c2ccc(NC(=O)CCCC(=O)N[C@@H]3O[C@H](CO)[C@@H](O)[C@H](O)[C@H]3O)c([N+](=O)[O-])c2)s1 [Compound 14f, N^1-(2-Nitro-4-((5-sulfamoyl-1,3,4-thiadiazol-2-yl)carbamoyl)phenyl)-N^5-((2R,3R,4S,5S,6R)-3,4,5-trihydroxy-6-(hydroxymethyl)tetrahydro-2H-pyran-2-yl)glutaramide]
14 | 53.4 ± 6.2 | 165 ± 9.1 | – | 70.5 ± 10.9 | – | – | Cc1cc(C(=O)Nc2nnc(S(N)(=O)=O)s2)ccc1NC(=O)CCCC(=O)N[C@@H]1O[C@H](CO)[C@@H](O)[C@H](O)[C@H]1O [Compound 14g, N^1-(2-Methyl-4-((5-sulfamoyl-1,3,4-thiadiazol-2-yl)carbamoyl)phenyl)-N^5-((2R,3R,4S,5S,6R)-3,4,5-trihydroxy-6-(hydroxymethyl)tetrahydro-2H-pyran-2-yl)glutaramide]
15 | 54.9 ± 6.2 | 197 ± 7.9 | – | 52.8 ± 11.4 | – | – | NS(=O)(=O)c1nnc(NC(=O)c2ccc(NC(=O)CCC(=O)NC3OC(CO)C(O)C(O)C3O)cc2)s1 [Compound 14i, N^1-(4-((5-Sulfamoyl-1,3,4-thiadiazol-2-yl)carbamoyl)phenyl)-N^4-((2R,3R,4S,5S,6R)-3,4,5-trihydroxy-6-(hydroxymethyl)tetrahydro-2H-pyran-2-yl)succinimide]
16 | 69.4 ± 5.7 | 260 ± 12.6 | – | 40.6 ± 6.9 | – | – | NS(=O)(=O)c1nnc(NC(=O)c2cccc(NC(=O)CCC(=O)N[C@@H]3O[C@H](CO)[C@@H](O)[C@H](O)[C@H]3O)c2)s1 [Compound 14j, N^1-(3-((5-Sulfamoyl-1,3,4-thiadiazol-2-yl)carbamoyl)phenyl)-N^4-((2R,3R,4S,5S,6R)-3,4,5-trihydroxy-6-(hydroxymethyl)tetrahydro-2H-pyran-2-yl)succinimide]
17 | 141 ± 8.1 | 474 ± 7.1 | – | – | – | – | NS(=O)(=O)c1nnc(NC(=O)c2ccc(NC(=O)CCC(=O)N[C@@H]3O[C@H](CO)[C@@H](O)[C@H](O)[C@H]3O)c(F)c2)s1 [Compound 14k, N^1-(2-Fluoro-4-((5-sulfamoyl-1,3,4-thiadiazol-2-yl)carbamoyl)phenyl)-N^4-((2R,3R,4S,5S,6R)-3,4,5-trihydroxy-6-(hydroxymethyl)tetrahydro-2H-pyran-2-yl)succinimide]
18 | 256 ± 7.9 | 612 ± 8.5 | – | – | – | – | NS(=O)(=O)c1nnc(NC(=O)c2ccc(NC(=O)CCC(=O)N[C@@H]3O[C@H](CO)[C@@H](O)[C@H](O)[C@H]3O)c(Cl)c2)s1 [Compound 14l, N^1-(2-Chloro-4-((5-sulfamoyl-1,3,4-thiadiazol-2-yl)carbamoyl)phenyl)-N^4-((2R,3R,4S,5S,6R)-3,4,5-trihydroxy-6-(hydroxymethyl)tetrahydro-2H-pyran-2-yl)succinimide]
19 | 865 ± 10.7 | 824 ± 11.1 | – | – | – | – | NS(=O)(=O)c1nnc(NC(=O)c2ccc(NC(=O)CCC(=O)N[C@@H]3O[C@H](CO)[C@@H](O)[C@H](O)[C@H]3O)c(Br)c2)s1 [Compound 14m, N^1-(2-Bromo-4-((5-sulfamoyl-1,3,4-thiadiazol-2-yl)carbamoyl)phenyl)-N^4-((2R,3R,4S,5S,6R)-3,4,5-trihydroxy-6-(hydroxymethyl)tetrahydro-2H-pyran-2-yl)succinimide]
20 | 291 ± 10.9 | 1400 ± 24.6 | – | – | – | – | NS(=O)(=O)c1nnc(NC(=O)c2ccc(NC(=O)CCC(=O)N[C@@H]3O[C@H](CO)[C@@H](O)[C@H](O)[C@H]3O)c([N+](=O)[O-])c2)s1 [Compound 14n, N^1-(2-Nitro-4-((5-sulfamoyl-1,3,4-thiadiazol-2-yl)carbamoyl)phenyl)-N^4-((2R,3R,4S,5S,6R)-3,4,5-trihydroxy-6-(hydroxymethyl)tetrahydro-2H-pyran-2-yl)succinimide]
21 | 135 ± 7 | 270 ± 13.9 | – | – | – | – | Cc1cc(C(=O)Nc2nnc(S(N)(=O)=O)s2)ccc1NC(=O)CCC(=O)N[C@@H]1O[C@H](CO)[C@@H](O)[C@H](O)[C@H]1O [Compound 14o, N^1-(2-Methy-4-((5-sulfamoyl-1,3,4-thiadiazol-2-yl)carbamoyl)phenyl)-N^4-((2R,3R,4S,5S,6R)-3,4,5-trihydroxy-6-(hydroxymethyl)tetrahydro-2H-pyran-2-yl)succinimide]
